{"source": "patent US20150250826A1", "about": "“ISOLATION AND CHARACTERIZATION OF MUSCLE REGENERATING CELLS” (Joslin Diabetes Center, Inc., priority 2012, published 2015)", "format_in_all_cases": "cell-based", "key": {"[1]": {"test_system": "human rhabdomyosarcoma cell line RD", "assay": "In vitro growth assay (MTT) in human rhabdomyosarcoma cell line RD", "conditions": "96 hours", "source_text": "(§1) FIG. 8: In vitro screening of candidate targets. Sarcoma cells were exposed to increasing concentrations of Torin (10, 50, 250 nMol), Rapamycin (10, 50, 100 nMol), RL0061425 (10, 50, 100, 500, 1000 nMol), SB525334 (1, 10, 50, 100, 500 nMol), SD208 (10, 50, 100, 500, 1000 nMol), and Ethanol and DMSO (as a control).\nTo begin to evaluate the effects of candidate target genes in sarcoma cells, we have established in vitro assays in which the proliferation of sarcoma cell lines exposed to selected chemical compounds is measured by MTT (3-(4,5-Dimethylthiazol-2-yl)-2,5-diphenyltretrazolium bromide) assay at defined time points. All experiments are carried out in low-passage cell lines established from modeled Kras rhabdomyosarcomas of satellite cell origin. For comparison, we also studied the effects of these compounds in the human embryonal rhabdomyosarcoma cell line RD. In these studies, we focused first on a small set of readily available chemical compounds (obtained from D. Guertin and L. Rubin at the University of Massachusetts and the Harvard Stem Cell Institute, respectively), whose targets include the TGFβ and mammalian target of rapamycin (mTOR) signaling pathways. […]"}, "[2]": {"test_system": "mouse Kras; p16p19null sarcoma line", "assay": "In vitro growth assay (MTT) in mouse Kras; p16p19null sarcoma line", "conditions": "96 hours", "source_text": "as §1\n(§2) To begin to evaluate the effects of candidate target genes in sarcoma cells, we have established in vitro assays in which the proliferation of sarcoma cell lines exposed to selected chemical compounds is measured by MTT (3-(4,5-Dimethylthiazol-2-yl)-2,5-diphenyltretrazolium bromide) assay at defined time points. All experiments are carried out in low-passage cell lines established from modeled Kras rhabdomyosarcomas of satellite cell origin. For comparison, we also studied the effects of these compounds in the human embryonal rhabdomyosarcoma cell line RD. In these studies, we focused first on a small set of readily available chemical compounds (obtained from D. Guertin and L. Rubin at the University of Massachusetts and the Harvard Stem Cell Institute, respectively), whose targets include the TGFβ and mammalian target of rapamycin (mTOR) signaling pathways. As discussed above, the TGFβ pathway was implicated in sarcoma pathogenesis by our prior bioinformatics analyses. mTOR was tested as well because Ras pathway activation has been reported to promote mTOR signaling (Carriere, A., Romeo, Y., Acosta-Jaquez, H. A., Moreau, J., Bonneil, E., Thibault, P. Fingar, D. C., Roux, P. P., ERK1/2 Phosphorylate Raptor to Promote Ras-dependent Activation of mTOR Complex 1 (mTORC1). J Biol Chem 286 (1), 567 (2011)), and many genes on our list appear to interact with this signaling pathway (data not shown). Finally, gene ontology analyses of the 146 sarcoma-associated genes discussed above identified 61 genes that function in cell growth and proliferation (i.e., key cellular activities often regulated by mTOR).\n(§3) Cell lines from the modeled sarcomas were exposed to graded concentrations of mTOR inhibitors (Rapamycin, Torin) or TGF inhibitors (RL0061425, SB525334, SD208). […]"}, "[3]": {"test_system": "mouse Kras; p16p19null rhabdomyosarcoma cell line", "assay": "In vitro growth assay (MTT) in mouse Kras; p16p19null rhabdomyosarcoma cell line", "conditions": "48 hours", "source_text": "as §1, §2, §3"}, "[4]": {"conditions": "tested at 10, 50, 100, 500, 1000 nMol"}}}
{"molecule": "Cc1cccc(-c2[nH]c(C(C)(C)C)nc2-c2ccc3nccnc3c2)n1", "note": "[SB525334]", "values": [{"measurement": "cell growth (fold-increase in MTT-uptake)", "setting": "[1]; 1, 10, 50, 100, 500 nMol", "value": "no major effect"}, {"measurement": "cell growth (fold-increase in MTT-uptake)", "setting": "[2]; 1, 10, 50, 100, 500 nMol", "value": "no major effect"}, {"measurement": "cell growth (fold-increase in MTT-uptake)", "setting": "[3]; 1, 10, 50, 100, 500 nMol", "value": "no major effect"}]}
{"molecule": "Fc1ccc(Cl)cc1-c1nc(Nc2ccncc2)c2nccnc2n1", "note": "[SD208]", "values": [{"measurement": "concentration at which growth was inhibited (MTT-uptake)", "setting": "[2]; [4]", "value": "≥ 500", "unit": "nmol"}, {"measurement": "concentration at which growth was inhibited (MTT-uptake)", "setting": "[3]; [4]", "value": "≥ 500", "unit": "nmol"}]}
{"molecule": "Torin", "values": [{"measurement": "cell growth (fold-increase in MTT-uptake)", "setting": "[1]; 250 nMol", "value": "reduced the growth"}, {"measurement": "cell growth (fold-increase in MTT-uptake)", "setting": "[2]; 250 nMol", "value": "reduced the growth"}, {"measurement": "cell growth (fold-increase in MTT-uptake)", "setting": "[3]; 250 nMol", "value": "reduced the growth"}]}
